Measured values from ChEMBL document CHEMBL1135196, “4-Aminoarylguanidine and 4-aminobenzamidine derivatives as potent and selective urokinase-type plasminogen activator inhibitors” (Bioorg Med Chem Lett, 2002).

Tests used:
[1] = target: Urokinase-type plasminogen activator (Homo sapiens, UniProt P00749)
Description: Inhibition of urokinase-type plasminogen activator (microPa)

[2] = target: T1, Coagulation factor X (Homo sapiens, UniProt P00742); assay: The compound was evaluated to inhibit the Coagulation factor X
[3] = target: T2, Tissue-type plasminogen activator (Homo sapiens, UniProt P00750); assay: Activation of tissue plasminogen
[4] = target: Prothrombin (Homo sapiens, UniProt P00734); assay: Inhibition of thrombin
[5] = target: Plasminogen (Homo sapiens, UniProt P00747); assay: Inhibition of plasmin
[6] = target: T1, Coagulation factor X; assay: Inhibition of coagulation factor X
[7] = target: T2, Tissue-type plasminogen activator; assay: Activation of plasminogen

T1 sequence (P00742 41-179 limits assumed): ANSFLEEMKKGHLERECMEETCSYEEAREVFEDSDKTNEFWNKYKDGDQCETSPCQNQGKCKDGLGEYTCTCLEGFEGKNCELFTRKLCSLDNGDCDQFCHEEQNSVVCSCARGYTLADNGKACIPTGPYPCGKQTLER
T1 sequence (P00742 235-488 limits assumed): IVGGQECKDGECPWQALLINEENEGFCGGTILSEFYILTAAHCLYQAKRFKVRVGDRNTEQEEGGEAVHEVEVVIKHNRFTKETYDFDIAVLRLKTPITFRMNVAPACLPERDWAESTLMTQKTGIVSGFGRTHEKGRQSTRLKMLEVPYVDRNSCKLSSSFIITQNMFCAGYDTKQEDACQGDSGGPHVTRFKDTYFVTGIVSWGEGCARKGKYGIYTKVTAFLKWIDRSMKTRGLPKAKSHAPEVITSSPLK
T2 sequence (P00750 whole entry): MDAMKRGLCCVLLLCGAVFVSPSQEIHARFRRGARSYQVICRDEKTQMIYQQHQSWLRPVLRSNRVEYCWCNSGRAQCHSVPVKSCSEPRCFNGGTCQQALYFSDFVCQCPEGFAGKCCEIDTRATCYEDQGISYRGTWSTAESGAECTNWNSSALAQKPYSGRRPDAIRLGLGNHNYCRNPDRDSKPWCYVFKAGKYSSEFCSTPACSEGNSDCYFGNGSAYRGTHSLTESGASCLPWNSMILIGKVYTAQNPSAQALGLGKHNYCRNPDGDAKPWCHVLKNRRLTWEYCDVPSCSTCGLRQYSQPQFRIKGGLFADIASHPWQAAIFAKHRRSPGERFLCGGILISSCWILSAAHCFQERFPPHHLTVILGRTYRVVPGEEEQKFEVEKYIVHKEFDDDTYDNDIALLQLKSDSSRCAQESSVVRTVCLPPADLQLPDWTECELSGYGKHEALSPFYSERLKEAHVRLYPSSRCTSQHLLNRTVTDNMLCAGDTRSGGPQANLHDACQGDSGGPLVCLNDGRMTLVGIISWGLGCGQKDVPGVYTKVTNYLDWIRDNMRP
Chain of Plasminogen (P00747 97-580 limits assumed): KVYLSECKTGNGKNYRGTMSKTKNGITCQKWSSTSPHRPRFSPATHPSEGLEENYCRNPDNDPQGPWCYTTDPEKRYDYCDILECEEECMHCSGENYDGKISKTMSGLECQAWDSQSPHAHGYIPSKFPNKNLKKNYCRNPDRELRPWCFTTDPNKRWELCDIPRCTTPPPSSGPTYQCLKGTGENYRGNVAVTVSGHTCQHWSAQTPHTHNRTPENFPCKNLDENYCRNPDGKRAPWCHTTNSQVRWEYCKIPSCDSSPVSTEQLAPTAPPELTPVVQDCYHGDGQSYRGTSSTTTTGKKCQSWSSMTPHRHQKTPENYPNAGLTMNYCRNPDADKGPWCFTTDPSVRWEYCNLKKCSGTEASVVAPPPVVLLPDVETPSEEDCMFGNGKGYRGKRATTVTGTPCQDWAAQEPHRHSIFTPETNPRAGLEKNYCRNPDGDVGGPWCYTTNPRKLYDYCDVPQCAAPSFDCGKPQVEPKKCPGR
Chain of Plasminogen (P00747 581-810 limits assumed): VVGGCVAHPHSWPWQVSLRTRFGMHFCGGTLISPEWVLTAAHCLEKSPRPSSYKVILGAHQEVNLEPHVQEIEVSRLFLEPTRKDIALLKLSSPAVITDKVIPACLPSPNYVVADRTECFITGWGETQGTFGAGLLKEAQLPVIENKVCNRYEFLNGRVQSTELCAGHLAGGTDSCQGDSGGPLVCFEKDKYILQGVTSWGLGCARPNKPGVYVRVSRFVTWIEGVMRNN

Ki [3] [µM] | Ki [5] [µM] | Ki [6] [µM] | Compound | Ki [1] [µM] | Ki [2] [µM] | Ki [4] [µM] | Ki [7] [µM]
 |  | > 470 | N=C(N)Nc1ccc(NC(=O)c2cc([N+](=O)[O-])ccc2O)cc1 | > 75 |  | 315 | > 95
> 95 |  | > 470 | COc1ccc(O)c(C(=O)Nc2ccc(NC(=N)N)cc2)c1 | 20 |  | > 450 | 
 |  | > 470 | NC(N)=Nc1ccc(NC(=O)c2cc(Br)ccc2O)cc1 |  |  | > 450 | > 95
 | > 75 | > 470 | Cc1ccc(O)c(C(=O)Nc2ccc(NC(=N)N)cc2)c1 |  |  | > 450 | > 95
> 563 | > 75 | > 470 | Cc1cc(I)c(O)c(C(=O)Nc2ccc(NC(=N)N)cc2)c1 | 8.5 |  | > 450 | 
 | > 75 | 235 | N=C(N)Nc1ccc(NC(=O)c2cc3ccccc3c(Br)c2O)cn1 |  |  | 330 | 
 |  |  | CCOc1ccc(C(=O)Nc2ccc(C(=N)N)cc2)c(O)c1 | 0.65 | 37 | 34 | 2
> 95 |  | > 470 | NC(N)=Nc1ccc(NC(=O)c2ccc(Cl)cc2O)cc1 |  |  | > 450 | 
> 563 |  | 240 | CC(C)Oc1c(O)c(C(=O)Nc2ccc(NC(=N)N)cc2)cc2ccccc12 |  |  | > 450 | 
 |  |  | Cc1ccc(O)c(C(=O)Nc2ccc(C(=N)N)cc2)c1 | 2.6 | 9.4 | 14 | 6.9
 |  |  | COc1ccc(O)c(C(=O)Nc2ccc(C(=N)N)cc2)c1 | 3.1 | 5.2 | 12 | 9.4
> 95 |  | 350 | Cc1cccc(C(=O)Nc2ccc(NC(=N)N)cc2)c1O |  |  | > 450 | 
> 95 |  | > 470 | NC(N)=Nc1ccc(NC(=O)c2cccc(-c3ccccc3)c2O)cc1 |  |  | > 450 | 
 | > 75 | 104 | NC(N)=Nc1ccc(NC(=O)c2ccccc2O)cc1 |  |  | > 450 | > 95
> 95 | > 75 | > 470 | N=C(N)Nc1ccc(NC(=O)c2cc3ccccc3c(I)c2O)cc1 |  |  | > 450 | 
 | > 75 | 68 | N=C(N)Nc1ccc(NC(=O)c2cc3ccccc3c(I)c2O)cn1 |  |  | 310 | 
> 95 |  | > 470 | Cc1ccc(C(=O)Nc2ccc(NC(=N)N)cc2)c(O)c1 |  |  | > 450 | 
> 95 | > 75 | > 470 | N=C(N)Nc1ccc(NC(=O)c2cc3ccccc3c(Br)c2O)cc1 |  |  | > 450 | 
> 95 | > 75 | > 470 | CCOc1ccc(C(=O)Nc2ccc(NC(=N)N)cc2)c(O)c1 | 10 |  | > 450 | 
 |  |  | N=C(N)c1ccc(NC(=O)c2cc(Br)ccc2O)cc1 |  | 15 | 29 | 21
 |  |  | N=C(N)c1ccc(NC(=O)c2cc([N+](=O)[O-])ccc2O)cc1 | 44 | 99 | 185 | 94

Compound | Ki [3] [µM] | Ki [5] [µM] | Ki [6] [µM] | Ki [1] [µM] | Ki [2] [µM] | Ki [4] [µM] | Ki [7] [µM]
N=C(N)c1ccc(NC(=O)c2ccccc2O)cc1 | 10 | 90 |  | 2.7 | 12 | 22 | 
[H]/N=C(/N)c1ccc(NC(=O)c2cc(C)cc(I)c2O)cc1Cl |  |  | 115 |  |  | 245 | 256
Cc1cc(Br)c(O)c(C(=O)Nc2ccc(NC(=N)N)cc2)c1 | 258 | 205 | 151 |  |  | 125 | 
N=C(N)c1ccc(NC(=O)c2ccc(Cl)cc2O)cc1 |  | 27 |  | 6 | 2.8 | 9.5 | 2.4
Cc1cccc(C(=O)Nc2ccc(C(=N)N)cc2)c1O |  | 18 | 5.7 | 1.7 |  | 8 | 3.9
Cc1cc(I)c(O)c(C(=O)Nc2ccc(C(=N)N)c(F)c2)c1 |  |  | 0.52 |  |  |  | 1.7
NC(N)=Nc1ccc(NC(=O)c2cccc(Cl)c2O)cc1 | > 95 |  | 470 |  |  | > 450 | 
Cc1ccc(C(=O)Nc2ccc(C(=N)N)cc2)c(O)c1 |  | 6 | 2.3 | 1 |  | 10 | 3.6
N=C(N)c1ccc(NC(=O)c2cccc(-c3ccccc3)c2O)cc1 |  |  | 188 | 8.5 |  | 120 | 53
Cc1cc(I)c(O)c(C(=O)Nc2ccc(C(=N)N)cc2)c1 |  | 0.29 | 0.46 |  |  | 0.38 | 0.24
N=C(N)c1ccc(NC(=O)c2cccc(Cl)c2O)cc1 |  |  | 1 | 0.6 |  | 1 | 1.5
Cc1cc(Br)c(O)c(C(=O)Nc2ccc(C(=N)N)cc2)c1 |  |  | 0.44 |  |  | 0.28 | 0.36
